Experimental data published in the supplement of paper PMC10307832.

Assays:
Assay in all cases: relative viability (nuclei count vs DMSO), 5 days (fraction); higher = more cells survive
[1] = compound: C1CC1C(=O)NC2=NNC3=C2C=CC(=C3)C4=CC(=CC=C4)C(=O)NC5CC5 [XMD13-2] + C[C@@H](Oc1cc(-c2cnn(C3CCNCC3)c2)cnc1N)c1c(Cl)ccc(F)c1Cl [Crizotinib] (partner 1 µM)
Method in brief: (§1)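 Lung cancer cell lines were pin-tool dosed in 1536-well plates on the day after seeding, with either a lone drug or a fixed anchor-drug dose plus five library-drug doses (not always all listed) in √10 steps. Nuclei were counted on 4× images after 5 days. Relative viability is the ratio of treated-well to vehicle-well nuclei counts, with each value a median of duplicate plates.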

[2] = compound: C1CC1C(=O)NC2=NNC3=C2C=CC(=C3)C4=CC(=CC=C4)C(=O)NC5CC5 [XMD13-2] + O=C(CCCCCCC(=O)Nc1ccccc1)NO [Vorinostat] (partner 1 µM)
Method in brief: as §1

[3] = compound: Cc1ccc(C(=O)Nc2cccc(C(F)(F)F)c2)cc1Nc1cncc(C(N)=O)c1 [ALW-II-49-7] + C[C@@H](Oc1cc(-c2cnn(C3CCNCC3)c2)cnc1N)c1c(Cl)ccc(F)c1Cl [Crizotinib] (partner 1 µM)
Method in brief: as §1

[4] = compound: Cc1nc(Nc2ncc(C(=O)Nc3c(C)cccc3Cl)s2)cc(N2CCN(CCO)CC2)n1 [Dasatinib] + C[C@@H](Oc1cc(-c2cnn(C3CCNCC3)c2)cnc1N)c1c(Cl)ccc(F)c1Cl [Crizotinib] (partner 1 µM)
Method in brief: as §1

Cell Line | relative viability ([1]; first compound 0.05 µM) | relative viability ([1]; first compound 0.1581 µM) | relative viability ([1]; first compound 0.5 µM) | relative viability ([1]; first compound 1.581 µM) | relative viability ([1]; first compound 5 µM) | relative viability ([2]; first compound 0.05 µM) | relative viability ([2]; first compound 0.1581 µM) | relative viability ([2]; first compound 0.5 µM) | relative viability ([2]; first compound 1.581 µM) | relative viability ([2]; first compound 5 µM) | relative viability ([3]; first compound 0.08 µM) | relative viability ([3]; first compound 0.253 µM) | relative viability ([3]; first compound 0.8 µM) | relative viability ([3]; first compound 2.53 µM) | relative viability ([3]; first compound 8 µM) | relative viability ([4]; first compound 0.005 µM) | relative viability ([4]; first compound 0.01581 µM) | relative viability ([4]; first compound 0.05 µM) | relative viability ([4]; first compound 0.1581 µM) | relative viability ([4]; first compound 0.5 µM)
LC-2-ad | 0.468 | 0.449 | 0.467 | 0.443 | 0.48 | 0.721 | 0.703 | 0.717 | 0.696 | 0.722 | 0.354 | 0.461 | 0.476 | 0.378 | 0.393 | 0.416 | 0.329 | 0.326 | 0.257 | 0.2
NCI-H522 | – | – | – | – | – | 0.856 | 0.873 | 0.805 | 0.982 | 0.907 | – | – | – | – | – | – | – | – | – | –
NCI-H1563 | 0.91 | 0.898 | 0.77 | 0.852 | 1.02 | – | – | – | – | – | 0.927 | 0.842 | 0.858 | 0.774 | 0.867 | 0.803 | 0.673 | 0.679 | 0.592 | 0.577
NCI-H1703 | 1.11 | 0.997 | 0.874 | 0.422 | 0.465 | – | – | – | – | – | 0.859 | 0.713 | 0.554 | 0.309 | 0.211 | 0.652 | 0.18 | 0.203 | 0.154 | 0.108
NCI-H1792 | 1.22 | 0.929 | 0.979 | 0.869 | 1.12 | – | – | – | – | – | 0.795 | 0.866 | 0.819 | 0.827 | 0.878 | 0.938 | 0.916 | 0.874 | 0.753 | 0.51
NCI-H1648 | – | – | – | – | – | 0.733 | – | 0.42 | 0.391 | 0.459 | – | – | – | – | – | – | – | – | – | –
EBC-1 | 0.225 | 0.208 | 0.204 | 0.178 | 0.199 | – | – | – | – | – | 0.176 | 0.177 | 0.203 | 0.171 | 0.182 | 0.203 | 0.187 | 0.205 | 0.183 | 0.172
NCI-H1395 | – | – | – | – | – | 0.732 | 0.871 | 0.651 | 0.594 | 0.707 | – | – | – | – | – | – | – | – | – | –
NCI-H1299 | 1.02 | 0.954 | 0.99 | 0.948 | 0.904 | – | – | – | – | – | 0.972 | 0.954 | 0.963 | 0.861 | 0.736 | 0.966 | 0.975 | 0.779 | 0.274 | 0.256
A549 | 0.994 | 0.736 | 0.721 | 0.664 | 0.824 | – | – | – | – | – | 0.753 | 0.852 | 0.596 | 0.754 | 0.624 | 0.563 | 0.642 | 0.415 | 0.264 | 0.131
NCI-H1793 | – | – | – | – | – | 1.03 | 0.602 | 0.746 | 0.666 | 0.928 | – | – | – | – | – | – | – | – | – | –
